In series [1] the test system is Peripheral Neuropathy in a Mouse Caused by Oxaliplatin. The series is described as follows: Von Frey test (0.16 g filament), peripheral neuropathy caused by oxaliplatin. Type of series: in vivo, Balb/c mice. To be noted: 6 mg/kg oxaliplatin + 100 mg/kg orally daily from Day 6 (therapy). An excerpt:
Six to seven-week-old female Balb/c mice were used for the tests as with Example 1. All the mice were acclimated for seven days after arrival. Then, the mice were grouped into the following four groups: a control group, a group receiving oxaliplatin, a group receiving D-threitol, and a group receiving oxaliplatin and D-threitol (a group receiving oxaliplatin+D-threitol). Each group consisted of five mice.
On Day 8 of acclimation, the mice in the group receiving oxaliplatin and the group receiving oxaliplatin+D-threitol were intraperitoneally administered with oxaliplatin at a dose of 6 mg/kg. This day was designated as the first day of the administration (Day 0). Thereafter, these mice were intraperitoneally administered with oxaliplatin at a daily dose of 6 mg/kg on Day 7 and Day 14.
The mice in the group receiving D-threitol and the group receiving oxaliplatin+D-threitol were orally administered with D-threitol at a dose of 5 mg/kg daily from Day 0.
The mice in the four groups described in (1) of the present example (Example 3) were placed in a cage, and the avoidance response frequency (score) was measured by pressing a filament with a bending force of 0.16 g against the back of the hind paw.
On Day 8 of acclimation, the mice in the group receiving oxaliplatin and the group receiving oxaliplatin+D-threitol were intraperitoneally administered with oxaliplatin at a dose of 6 mg/kg. This day was designated as the first day of the administration (Day 0). Thereafter, these mice were intraperitoneally administered with oxaliplatin at the same dose on Day 7 and Day 14 for a total of 3 doses.
The mice in the group receiving 100 mg/kg D-threitol were orally administered with D-threitol at a dose of 100 mg/kg daily from Day 0. The mice in the group receiving oxaliplatin+100 mg/kg D-threitol were orally administered with D-threitol at a dose of 100 mg/kg daily from Day 6 of administration.
For the mice in the four groups described in (1) of the present example (Example 4), the avoidance response frequency (score) was measured by pressing a filament with a bending force of 0.16 g against the back of the hind paw.
Six to seven-week-old female Balb/c mice were used for the tests as with Example 1. All the mice were acclimated for seven days after arrival. Then, the mice were grouped into the following four groups: a control group, a group receiving oxaliplatin, a group receiving L-talitol, and a group receiving oxaliplatin and L-talitol (a group receiving oxaliplatin+L-talitol). Each group consisted of five mice. […]
The mice in the four groups described in (1) of the present example (Example 5) were placed in a cage, and the avoidance response frequency (score) was measured by pressing a filament with a bending force of 0.16 g against the back of the hind paw. […]

The conditions of series [2]: as is well known; except diarrhea no side effects due to overdose observed; cited from earlier work.

The structures appear in SMILES notation.

`OC[C@@H](O)[C@H](O)CO` [D-threitol]: the avoidance response score result in series [1] (from Day 15 onwards) is “maintained a score clearly lower than that of the group receiving oxaliplatin”. Besides, the “safety for the human body” value in series [2] was “safe for the human body”.

For `OC[C@H](O)[C@H](O)[C@H](O)[C@@H](O)CO` [L-talitol], the avoidance response score entry in series [1] (from Day 12 onwards) is on record as “maintained a score clearly lower than that of the group receiving oxaliplatin”. For the same compound, the “safety for the human body” value in series [2] was “safe for the human body”.

As to `OC[C@@H](O)[C@H](O)[C@@H](O)CO` [xylitol], the avoidance response score result in series [1] (from Day 12 onwards) is “maintained a score clearly lower than that of the group receiving oxaliplatin”. In addition, the “safety for the human body” value in series [2] was “safe for the human body”.

These data come from patent US20240099989A1, “AGENT FOR PREVENTING OR IMPROVING PERIPHERAL NEUROPATHY” (KINKI UNIVERSITY, priority 2021, published 2024).
